Source: ChEMBL document CHEMBL3879907, “8-azabicyclo[3.2.1]octane compounds as mu opioid receptor antagonists” (2014)

Legend:
[1] = molecular target: Delta-type opioid receptor (Homo sapiens, UniProt P41143); test: Displacement of [3H]-diprenorphine from human delta opioid receptor expressed in cell membranes
[2] = molecular target: Kappa-type opioid receptor (Cavia porcellus, UniProt P41144); test: Displacement of [3H]-diprenorphine from guinea pig kappa opioid receptor expressed in CHOK1 cell membranes; conditions: cho-k1
[3] = molecular target: Mu-type opioid receptor (Homo sapiens) (UniProt P35372); test: Intrinsic activity at human mu opioid receptor expressed in CHOK1 cell membranes at 0.00001 to 20 uM after 30 mins by GTP-Eu nucleotide exchange assay relative to DAMGO; format: functional; conditions: CHO-K1
Sequence of Mu-type opioid receptor (Homo sapiens) (P35372 whole entry): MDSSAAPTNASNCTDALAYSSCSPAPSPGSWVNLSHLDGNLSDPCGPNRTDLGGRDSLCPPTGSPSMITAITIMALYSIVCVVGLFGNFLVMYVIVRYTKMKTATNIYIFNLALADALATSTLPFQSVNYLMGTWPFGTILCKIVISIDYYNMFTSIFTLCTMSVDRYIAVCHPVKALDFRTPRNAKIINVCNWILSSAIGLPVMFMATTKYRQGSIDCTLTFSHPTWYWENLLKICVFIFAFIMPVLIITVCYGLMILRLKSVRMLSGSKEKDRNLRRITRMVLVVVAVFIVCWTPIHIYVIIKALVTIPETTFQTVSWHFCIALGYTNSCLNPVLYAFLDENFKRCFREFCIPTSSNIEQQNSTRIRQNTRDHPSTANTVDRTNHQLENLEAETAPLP

Sequence of Delta-type opioid receptor (P41143 whole entry): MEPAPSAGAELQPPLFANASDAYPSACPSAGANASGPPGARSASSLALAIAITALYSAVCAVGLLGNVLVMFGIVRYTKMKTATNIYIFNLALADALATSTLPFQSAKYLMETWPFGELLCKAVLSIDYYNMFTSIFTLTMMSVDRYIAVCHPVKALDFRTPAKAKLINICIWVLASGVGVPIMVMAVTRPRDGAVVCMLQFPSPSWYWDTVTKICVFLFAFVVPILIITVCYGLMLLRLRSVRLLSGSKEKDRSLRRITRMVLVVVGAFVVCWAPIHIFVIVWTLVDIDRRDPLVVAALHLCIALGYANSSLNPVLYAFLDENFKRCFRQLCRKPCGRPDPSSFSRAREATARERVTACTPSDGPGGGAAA
Sequence of Kappa-type opioid receptor (P41144 whole entry): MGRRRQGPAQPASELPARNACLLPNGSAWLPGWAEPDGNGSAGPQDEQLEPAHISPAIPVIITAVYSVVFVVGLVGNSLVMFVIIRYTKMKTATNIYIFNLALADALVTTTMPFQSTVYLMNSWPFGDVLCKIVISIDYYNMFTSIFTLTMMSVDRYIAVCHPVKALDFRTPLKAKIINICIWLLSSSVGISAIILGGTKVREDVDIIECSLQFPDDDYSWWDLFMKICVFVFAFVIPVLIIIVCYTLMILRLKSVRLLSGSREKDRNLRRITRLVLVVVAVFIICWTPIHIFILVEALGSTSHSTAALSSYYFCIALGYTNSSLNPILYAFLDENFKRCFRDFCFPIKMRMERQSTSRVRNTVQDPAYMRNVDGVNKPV

For `NC(=O)c1cccc([C@H]2C[C@H]3CC[C@@H](C2)N3CCN(CC2CCCC2)C(=O)[C@H](O)CO)c1.O=C(O)C(F)(F)F`, the pKi [1] was 7 to 10.5, the pKi [2] was 7 to 10.5 and the Intrinsic activity [3] was under 40%.

`NC(=O)c1cccc([C@H]2C[C@H]3CC[C@@H](C2)N3CCN(CC2CCC2)C(=O)CO)c1.O=C(O)C(F)(F)F` showed a pKi [1] of 7 to 10.5, a pKi [2] of 7 to 10.5 and an Intrinsic activity [3] of under 40%.

With `CC(=O)N(CCN1[C@@H]2CC[C@H]1C[C@@H](c1cccc(O)c1)C2)Cc1ccccc1` the pKi [1] was 7 to 10.5, the pKi [2] was 7 to 10.5 and the Intrinsic activity [3] was under 40%.

In the case of `NC(=O)c1cccc([C@H]2C[C@H]3CC[C@@H](C2)N3CCN(CC2CCCCC2)C(=O)CCC(=O)O)c1`, the pKi [1] is reported as 7 to 10.5, the pKi [2] is reported as 7 to 10.5 and the Intrinsic activity [3] is reported as under 40%.

Compound `CS(=O)(=O)CC(=O)N(CCN1[C@@H]2CC[C@H]1C[C@@H](c1cccc(C(N)=O)c1)C2)CC1CCCC1.O=C(O)C(F)(F)F` has a pKi [1] of 7 to 10.5, a pKi [2] of 7 to 10.5 and an Intrinsic activity [3] of under 40%.

For `COc1ccc(NC(=O)N(CCN2[C@@H]3CC[C@H]2C[C@@H](c2cccc(O)c2)C3)CC2CCCCC2)cc1OC`, the pKi [1] was 7 to 10.5, the pKi [2] was 7 to 10.5 and the Intrinsic activity [3] was under 40%.

`O=C(CO)N(CCN1[C@@H]2CC[C@H]1C[C@@H](c1cccc(O)c1)C2)Cc1cccc(F)c1` showed a pKi [1] of 7 to 10.5, a pKi [2] of 7 to 10.5 and an Intrinsic activity [3] of under 40%.

`O=C(C1CCCC1)N(CCN1[C@@H]2CC[C@H]1C[C@@H](c1cccc(O)c1)C2)Cc1ccccc1` (single isomer, unassigned) was tested, and the pKi [1] was 7 to 10.5, the pKi [2] was 7 to 10.5 and the Intrinsic activity [3] was under 40%.

`CS(=O)(=O)CC(=O)N(CCN1[C@@H]2CC[C@H]1C[C@@H](c1cccc(C(N)=O)c1)C2)Cc1ccccc1.O=C(O)C(F)(F)F` gave a pKi [1] of 7 to 10.5, a pKi [2] of 7 to 10.5 and an Intrinsic activity [3] of under 40%.

Compound `CS(=O)(=O)CC(=O)N(CCN1[C@@H]2CC[C@H]1C[C@@H](c1cccc(C(N)=O)c1)C2)CC1CCCCC1` has a pKi [1] of 7 to 10.5, a pKi [2] of 7 to 10.5 and an Intrinsic activity [3] of under 40%.

`CC(C)CC(=O)N(CCN1[C@@H]2CC[C@H]1C[C@@H](c1cccc(O)c1)C2)Cc1cccc(F)c1` gave a pKi [1] of 7 to 10.5, a pKi [2] of 7 to 10.5 and an Intrinsic activity [3] of under 40%.

`O=C(CO)N(CCN1[C@@H]2CC[C@H]1C[C@@H](c1cccc(O)c1)C2)Cc1ccc(F)cc1` was tested, and the pKi [1] was 7 to 10.5, the pKi [2] was 7 to 10.5 and the Intrinsic activity [3] was under 40%.

For `O=C(CO)N(CCN1[C@@H]2CC[C@H]1C[C@@H](c1cccc(O)c1)C2)CC1CCCCC1`, the pKi [1] was 7 to 10.5, the pKi [2] was 7 to 10.5 and the Intrinsic activity [3] was under 40%.

Work on `O=C(CO)N(CCN1[C@@H]2CC[C@H]1C[C@@H](c1cccc(O)c1)C2)Cc1c(F)cccc1F` yielded a pKi [1] of 7 to 10.5, a pKi [2] of 7 to 10.5 and an Intrinsic activity [3] of under 40%.

For `CS(=O)(=O)CC(=O)N(CCN1[C@@H]2CC[C@H]1C[C@@H](c1cccc(O)c1)C2)Cc1cccc(F)c1`, the pKi [1] was 7 to 10.5, the pKi [2] was 7 to 10.5 and the Intrinsic activity [3] was under 40%.

Compound `COCC(=O)N(CCN1[C@@H]2CC[C@H]1C[C@@H](c1cccc(C(N)=O)c1)C2)Cc1ccccc1.O=C(O)C(F)(F)F` has a pKi [1] of 7 to 10.5, a pKi [2] of 7 to 10.5 and an Intrinsic activity [3] of under 40%.

With `CN(C)CC[C@H](O)C(=O)N(CCN1[C@@H]2CC[C@H]1C[C@@H](c1cccc(C(N)=O)c1)C2)CC1CCC(F)(F)CC1.O=C(O)C(F)(F)F.O=C(O)C(F)(F)F` the pKi [1] was 7 to 10.5, the pKi [2] was 7 to 10.5 and the Intrinsic activity [3] was under 40%.

`NC(=O)c1cccc([C@H]2C[C@H]3CC[C@@H](C2)N3CCN(Cc2c(F)cccc2F)C(=O)[C@@H](O)CO)c1.O=C(O)C(F)(F)F` gave a pKi [1] of 7 to 10.5, a pKi [2] of 7 to 10.5 and an Intrinsic activity [3] of under 40%.

For `CS(=O)(=O)N(CCN1[C@@H]2CC[C@H]1C[C@@H](c1cccc(C(N)=O)c1)C2)Cc1ccccc1.O=C(O)C(F)(F)F`, the pKi [1] was 7 to 10.5, the pKi [2] was 7 to 10.5 and the Intrinsic activity [3] was under 40%.

`COCC(=O)N(CCN1[C@@H]2CC[C@H]1C[C@@H](c1cccc(C(N)=O)c1)C2)CC1CCCCC1.O=C(O)C(F)(F)F` gave a pKi [1] of 7 to 10.5, a pKi [2] of 7 to 10.5 and an Intrinsic activity [3] of under 40%.

Compound `CC(CO)(CO)C(=O)N(CCN1[C@@H]2CC[C@H]1C[C@@H](c1cccc(C(N)=O)c1)C2)CC1CCC1.O=C(O)C(F)(F)F` has a pKi [1] of 7 to 10.5, a pKi [2] of 7 to 10.5 and an Intrinsic activity [3] of under 40%.
